This note sets out measurements from US20070066627A1, “Hydrazone derivatives for combatting harmful insects and arachnids” (priority 2004, published 2007).

Some results are limits rather than exact numbers.

The subject of the first assay is Southern Armyworm (Spodoptera eridania), 2nd Instar Larvae. As to the kind of experiment: Southern armyworm leaf-dip test, 2nd instar larvae. It counts as in vivo. The conditions noted are these: foliar, 120 h, observation at 5 days, read-out: mortality in comparison with untreated controls. Here is the method:
2.1 Southern Armyworm (Spodoptera eridania), 2nd Instar Larvae
The active compounds were formulated for testing the activity against insects and arachnids as a 10.000 ppm solution in a mixture of 35% acetone and water, which was diluted with water, if needed.
A Sieva lima bean leaf expanded to 78 cm in length is dipped in the test solution with agitation for 3 seconds and allowed to dry in a hood. The leaf is then placed in a 100×10 mm petri dish containing a damp filter paper on the bottom and ten 2nd instar caterpillars. At 5 days, observations are made of mortality, reduced feeding, or any interference with normal molting.
Consider `CC(C=NNC(=O)Cc1ccccc1)=Cc1ccccc1` [Compound 18], for which the mortality at 300 ppm was greater than 80%.

Turning to `O=C(NN=CC(Cl)=Cc1ccccc1)c1ccc(Cl)s1` [Compound 97], the mortality at 300 ppm is greater than 80%.

`CC(C=NNC(=O)c1cccnc1)=Cc1ccccc1` [Compound 160]: the mortality at 300 ppm is greater than 80%.

For the compound `CC(C=NNC(=O)c1cccnc1)=Cc1cccc(C(F)(F)F)c1` [Compound 161], the mortality at 300 ppm is greater than 80%.

With `O=C(NN=CC(Cl)=Cc1ccccc1)c1cccnc1` [Compound 162], the mortality at 300 ppm was greater than 80%.

Turning to `CC(C=NNC(=O)c1cnccn1)=Cc1ccccc1` [Compound 177], the mortality at 300 ppm was greater than 80%.

For `COc1ccc(C(=O)NN=CC(C)=Cc2ccccc2)cc1OC` [Compound 185], the mortality at 300 ppm is greater than 80%.

For the compound `CC(C=NNC(=O)c1ccc(F)cc1)=Cc1ccccc1` [Compound 190], the mortality at 300 ppm was greater than 80%.

Consider `O=C(NN=CC(Br)=Cc1ccccc1)c1ccccc1F` [Compound 192], for which the mortality at 300 ppm is greater than 80%.

With `CC(C=NNC(=O)c1ccccc1F)=Cc1cccc(F)c1` [Compound 198], the mortality at 300 ppm was greater than 80%.

Consider `CC(C=NNC(=O)c1cc(C(C)C)no1)=Cc1ccccc1` [Compound 238], for which the mortality at 300 ppm was greater than 80%.

Take `CC(C=NNC(=O)c1ccc(F)cc1F)=Cc1ccccc1` [Compound 318]: the mortality at 300 ppm was greater than 80%.

The next assay has as its system Cotton Aphid (aphis gossypii). Kind of assay: Cotton aphid test on cotton cotyledons. The conditions noted are these: 120 h, cotyledons dipped, after 5 days, read-out: mortality in comparison with untreated controls. The class given is in vivo. The text has this:
2.2 Cotton Aphid (aphis gossypii)
(§1) The active compounds were formulated in 50:50 acetone:water and 100 ppm Kinetic® surfactant.
Cotton plants at the cotyledon stage (one plant per pot) were infested by placing a heavily infested leaf from the main colony on top of each cotyledon. The aphids were allowed to transfer to the host plant overnight, and the leaf used to transfer the aphids was removed. The cotyledons were dipped in the test solution and allowed to dry. After 5 days, mortality counts were made.
For `CC(C=NNC(=O)c1cccs1)=Cc1cccc(F)c1` [Compound 70], the mortality at 300 ppm is greater than 75%.

As for `CC(C=NNC(=O)c1cccs1)=Cc1ccc(F)cc1` [Compound 71], the mortality at 300 ppm was greater than 75%.

Take `O=C(NN=CC(Cl)=Cc1ccccc1)c1ccco1` [Compound 120]: the mortality at 300 ppm is greater than 75%.

Turning to `CC(C=NNC(=O)c1ccco1)=Cc1ccccc1` [Compound 121], the mortality at 300 ppm is greater than 75%.

For `CCC(C=NNC(=O)c1ccco1)=Cc1ccccc1` [Compound 126], the mortality at 300 ppm was greater than 75%.

In the case of `O=C(NN=CC=Cc1ccccc1F)c1ccco1` [Compound 130], the mortality at 300 ppm was greater than 75%.

In the case of `CC(C=NNC(=O)c1ccco1)=Cc1cccc(F)c1` [Compound 131], the mortality at 300 ppm is greater than 75%.

On to `O=C(NN=CC(Cl)=Cc1ccccc1)c1ccccn1` [Compound 157], for which the mortality at 300 ppm was greater than 75%.

For the compound `CC(C=NNC(=O)c1ccccn1)=Cc1cccc(F)c1` [Compound 159], the mortality at 300 ppm was greater than 75%.

On to `CC(C=NNC(=O)c1ccccc1)=Cc1ccc(F)cc1` [Compound 181], for which the mortality at 300 ppm is greater than 75%.

Take `CC(C=NNC(=O)c1ccccc1F)=Cc1ccccc1` [Compound 194]: the mortality at 300 ppm was greater than 75%.

Consider `CC(C=NNC(=O)c1cc(F)ccc1F)=Cc1ccc(F)cc1` [Compound 202], for which the mortality at 300 ppm was greater than 75%.

In the case of `CC(C=NNC(=O)c1cc(F)ccc1F)=Cc1cccc(F)c1` [Compound 203], the mortality at 300 ppm is greater than 75%.

Regarding `CC(C=NNC(=O)c1c(F)cccc1F)=Cc1cccc(F)c1` [Compound 207], the mortality at 300 ppm is greater than 75%.

With `CC(C=NNC(=O)c1cc(C(C)C)on1)=Cc1ccc(F)cc1` [Compound 236], the mortality at 300 ppm was greater than 75%.

Consider `CC(C=NNC(=O)c1cc(C(C)C)no1)=Cc1cccc(F)c1` [Compound 240], for which the mortality at 300 ppm is greater than 75%.

In the case of `CC(C=NNC(=O)c1cc(Cl)ccn1)=Cc1cccc(F)c1` [Compound 277], the mortality at 300 ppm is greater than 75%.

Consider `CC(C=NNC(=O)c1cnccn1)=Cc1ccccc1F` [Compound 314], for which the mortality at 300 ppm is greater than 75%.

Turning to `CC(C=NNC(=O)c1ccc(F)cc1F)=Cc1ccc(F)cc1` [Compound 319], the mortality at 300 ppm was greater than 75%.

`CCC(C=NNC(=O)c1ccccn1)=Cc1ccccc1F` [Compound 392]: the mortality at 300 ppm was greater than 75%.

Turning to `CCC(C=NNC(=O)c1cccc(C)n1)=Cc1ccccc1F` [Compound 394], the mortality at 300 ppm was greater than 75%.

For `CCC(C=NNC(=O)c1cccc(C)n1)=Cc1cccc(F)c1F` [Compound 395], the mortality at 300 ppm was greater than 75%.

As to `CC(C=NNC(=O)c1ncccc1F)=Cc1ccccc1` [Compound 398], the mortality at 300 ppm was greater than 75%.

As to `CC(C=NNC(=O)c1ncccc1F)=Cc1ccc(F)cc1` [Compound 399], the mortality at 300 ppm is greater than 75%.

The subject of the next assay is Green Peach Aphid (Myzus persicae). Kind of assay: Green peach aphid test on pepper plants. It counts as in vivo. As to conditions: 120 h, leaves dipped, after 5 days, read-out: mortality in comparison with untreated controls.
From the text: 2.3 Green Peach Aphid (Myzus persicae)
as §1
Pepper plants in the 2nd leaf-pair stage (variety ‘California Wonder’) were infested with approximately 40 laboratory-reared aphids by placing infested leaf sections on top of the test plants. The leaf sections were removed after 24 hr. The leaves of the intact plants were dipped into gradient solutions of the test compound and allowed to dry.
Test plants were maintained under fluorescent light (24 hour photoperiod) at about 25° C. and 20-40% relative humidity. Aphid mortality on the treated plants, relative to mortality on check plants, was determined after 5 days.
As to `CC(C=NNC(=O)Cc1ccccc1)=Cc1cccc(F)c1` [Compound 19], the mortality at 300 ppm was greater than 75%.

On to `COc1ccc(CC(=O)NN=CC(C)=Cc2ccc(F)cc2)cc1OC` [Compound 20], for which the mortality at 300 ppm was greater than 75%.

For `CC(C=NNC(=O)c1sccc1C)=Cc1ccccc1` [Compound 76], the mortality at 300 ppm was greater than 75%.

`CC(C=NNC(=O)c1ccco1)=Cc1ccc(Cl)cc1` [Compound 128]: the mortality at 300 ppm was greater than 75%.

With `CC(C=NNC(=O)c1cc(C)nn1C)=Cc1ccccc1` [Compound 152], the mortality at 300 ppm was greater than 75%.

Turning to `CC(C=NNC(=O)c1ccncc1)=Cc1cccc(F)c1` [Compound 173], the mortality at 300 ppm was greater than 75%.

`COc1ccccc1C(=O)NN=CC(C)=Cc1ccc(F)cc1` [Compound 186]: the mortality at 300 ppm was greater than 75%.

With `CC(C=NNC(=O)c1ccccc1F)=Cc1ccccc1` [Compound 194], the mortality at 300 ppm was greater than 75%.

For `O=C(NN=CC(Cl)=Cc1ccccc1)c1ccccc1F` [Compound 195], the mortality at 300 ppm was greater than 75%.

For the compound `O=C(NN=CC=Cc1ccccc1F)c1ccccc1F` [Compound 197], the mortality at 300 ppm was greater than 75%.

As for `CC(C=NNC(=O)c1ccccc1F)=Cc1cccc(F)c1` [Compound 198], the mortality at 300 ppm is greater than 75%.

Regarding `CCC(C=NNC(=O)c1cccc(F)c1)=Cc1ccccc1` [Compound 200], the mortality at 300 ppm was greater than 75%.

`CC(C=NNC(=O)c1cc(F)ccc1F)=Cc1ccccc1C` [Compound 204]: the mortality at 300 ppm is greater than 75%.

As for `CC(C=NNC(=O)c1cc(C(C)C)on1)=Cc1ccccc1` [Compound 235], the mortality at 300 ppm is greater than 75%.

Consider `CC(C=NNC(=O)c1cc(C(C)C)on1)=Cc1cccc(F)c1` [Compound 237], for which the mortality at 300 ppm is greater than 75%.

As for `CC(C=NNC(=O)c1cc(Cl)ccn1)=Cc1ccccc1F` [Compound 278], the mortality at 300 ppm is greater than 75%.

In the case of `CC(C=NNC(=O)c1ccc(F)cc1F)=Cc1cccc(F)c1` [Compound 320], the mortality at 300 ppm was greater than 75%.

For `CC(C=NNC(=O)c1ccc(F)cc1F)=Cc1ccccc1F` [Compound 321], the mortality at 300 ppm was greater than 75%.

With `CCC(C=NNC(=O)c1ccccn1)=Cc1ccc(F)cc1` [Compound 393], the mortality at 300 ppm is greater than 75%.

In the case of `CC(C=NNC(=O)c1cccc(Cl)n1)=Cc1cccc(F)c1` [Compound 397], the mortality at 300 ppm is greater than 75%.

`CC(C=NNC(=O)c1cccc(F)n1)=Cc1ccccc1` [Compound 400]: the mortality at 300 ppm is greater than 75%.

The subject of the next assay is Bean Aphid (aphis fabae). Kind of assay: Bean aphid test on nasturtium plants. It counts as in vivo. The conditions noted are these: 72 h, plant dipped, after 3 days, read-out: mortality in comparison with untreated controls.
From the text: 2.4 Bean Aphid (aphis fabae)
as §1
Nasturtium plants grown in Metro mix in the 1st leaf-pair stage (variety ‘Mixed Jewle’) were infested with approximately 2-30 laboratory-reared aphids by placing infested cut plants on top of the test plants. The cut plants were removed after 24 hr. Each plant was dipped into the test solution to provide complete coverage of the foliage, stem, protruding seed surface and surrounding cube surface and allowed to dry in the fume hood. The treated plants were kept at about 25° C. with continuous fluorescent light. Aphid mortality was determined after 3 days.
`CC(C=NNC(=O)Cc1ccccc1)=Cc1ccccc1` [Compound 18]: the mortality at 300 ppm was greater than 75%.

With `O=C(NN=CC(Cl)=Cc1ccccc1)c1cccs1` [Compound 69], the mortality at 300 ppm is greater than 75%.

In the case of `CC(C=NNC(=O)c1cccs1)=Cc1ccc(F)cc1` [Compound 71], the mortality at 300 ppm is greater than 75%.

On to `CCC(C=NNC(=O)c1ccco1)=Cc1ccccc1` [Compound 126], for which the mortality at 300 ppm is greater than 75%.

On to `O=C(NN=CC(Cl)=Cc1ccccc1)c1ccccn1` [Compound 157], for which the mortality at 300 ppm was greater than 75%.

Regarding `CC(C=NNC(=O)c1ccccn1)=Cc1cccc(F)c1` [Compound 159], the mortality at 300 ppm is greater than 75%.

On to `CC(C=NNC(=O)c1cnccc1C(F)(F)F)=Cc1ccccc1` [Compound 168], for which the mortality at 300 ppm was greater than 75%.

Consider `CC(C=NNC(=O)c1cnccc1C(F)(F)F)=Cc1ccc(F)cc1` [Compound 169], for which the mortality at 300 ppm was greater than 75%.

Consider `O=C(NN=CC(Cl)=Cc1ccccc1)c1ccncc1` [Compound 170], for which the mortality at 300 ppm is greater than 75%.

As for `CC(C=NNC(=O)c1ccncc1)=Cc1ccccc1` [Compound 171], the mortality at 300 ppm was greater than 75%.

Turning to `CC(C=NNC(=O)c1ccc(O)cc1)=Cc1ccc(F)cc1` [Compound 184], the mortality at 300 ppm was greater than 75%.

For `CC(C=NNC(=O)c1ccc(F)cc1)=Cc1ccc(F)cc1` [Compound 191], the mortality at 300 ppm is greater than 75%.

For `O=C(NN=CC=Cc1ccccc1)c1ccccc1F` [Compound 196], the mortality at 300 ppm was greater than 75%.

As to `CC(C=NNC(=O)c1ccccc1F)=Cc1ccc(F)cc1` [Compound 199], the mortality at 300 ppm is greater than 75%.

With `CC(C=NNC(=O)c1cc(F)ccc1F)=Cc1ccc(F)cc1` [Compound 202], the mortality at 300 ppm was greater than 75%.

Take `CC(C=NNC(=O)c1ccc2ccccc2c1)=Cc1cccc(F)c1` [Compound 210]: the mortality at 300 ppm was greater than 75%.

For the compound `CC(C=NNC(=O)c1ccccn1)=Cc1cccc(C)c1` [Compound 253], the mortality at 300 ppm was greater than 75%.

The mortality is the percentage killed.
